# Laboratory results as given in US6914045B2, “Glycopeptide antibiotics” (Wyeth Holdings Corporation, priority 2001, dated 2005).
# Numbered stars: 1 amine (or outer) side, 2 acyl side, 3 side chain; on linkers, the order of the positions; unused ones are H or OH. Square brackets hold non-standard residues; d marks the D form. Peptide text beside a SMILES is read from it. ξ: configuration not given here. X1 = N=C1NCC(C(O)C(N[*:1])C(=O)[*:2])N1C1OC(CO)C(O)C(O)C1O; ξEnduracididine(βξ-OH,4'ξ) = N=C1NCC(C(O)C(N)C(=O)O)N1; Cha = N[CH](CC1CCCCC1)C(=O)O
# Assays:
# Enterococcus sp. = assay: in vitro antibacterial evaluation, MIC by broth dilution; assay type: cell-based
# Outline: (§1)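 MIC, the lowest antibiotic concentration preventing growth, was read across 64-0.06 μg/mL with 5×10^5 CFU/mL inoculum. Method followed NCCLS M7-A2 broth dilution using Mueller-Hinton II; Gram-positive strains covered recent methicillin-, penicillin- and/or vancomycin-resistant clinical isolates.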
# Staphylococcus sp. = assay: as above; assay type: cell-based; conditions: broth dilution, 18 hours at 35° C.; for MIC Staphylococcus aureus (ATCC 29213): strain ATCC 29213; for MIC Staphylococcus aureus (GC 1131): strain GC 1131; for MIC Staphylococcus aureus (GC 3051): strain GC 3051; for MIC Staphylococcus aureus (GC 3053): strain GC 3053; for MIC Staphylococcus aureus (GC 4541): strain GC 4541; for MIC Staphylococcus aureus (GC 4542): strain GC 4542; for MIC Staphylococcus aureus-SMITH (GC 4543): strain GC 4543; for MIC Staphylococcus aureus (GC 4544): strain GC 4544; for MIC Staphylococcus aureus (GC 4545): strain GC 4545; for MIC Staphylococcus haemolyticus (GC 4546): strain GC 4546; for MIC Coagulase Negative Staphylococcus (GC 4547): strain GC 4547; for MIC Coagulase Negative Staphylococcus (GC 4548): strain GC 4548; for MIC Coagulase Negative Staphylococcus (GC 4549): strain GC 4549; for MIC Coagulase Negative Staphylococcus (GC 4551): strain GC 4551
# Outline: as §1
# Streptococcus sp. = assay: as above; assay type: cell-based
# Outline: as §1
# [1] = clinical pathology (serum clinical chemistry) in mice; assay type: in vivo; conditions: CD-1 mice, 20 mg/kg intravenously daily for 9 days, sera day 10
# Description: 20-day-old CD-1 mice were divided into a vehicle control group (5 mice) and a treatment group (5 mice). Samples of glycopeptide antibiotics were administered at 20 mg/kg intravenously daily for 9 days.
# [2] = anatomic pathology (histopathology of heart and kidney) in mice; assay type: in vivo; conditions: CD-1 mice, 20 mg/kg intravenously daily for 9 days, necropsy day 10, microscopic histopathology
# Description: Samples of tissues from necropsied mice were formalin-fixed, paraffin-embedded, sectioned, stained with hematoxylin and eosin, and examined microscopically. Histopathologic findings were recorded. These findings were subjectively graded on a scale corresponding to slight, mild, moderate, marked and severe as compared to untreated controls.
# Escherichia coli = assay: in vitro antibacterial evaluation, MIC by broth dilution; assay type: cell-based; conditions: 18 hours at 35° C.
# Outline: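 MIC is the lowest antibiotic concentration (tested 64-0.06 μg/mL) preventing growth of a 5×10^5 CFU/mL inoculum. Determined by broth dilution in Mueller-Hinton II medium following NCCLS standard M7-A2.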
# [3] = broth dilution, 18 hours at 35° C.
compound,measurement,setting,value
"CC(c1ccccc1)C1NC(=O)CNC(=O)C(CO)NC(=O)C(C(O)C2CN(CCCCCCCCCCC(=O)O)C(=N)N2C2OC(CO)C(O)C(O)C2O)NC(=O)C(C(O)C2CNC(=N)N2)NC(=O)C(Cc2ccc(OC3OC(CO)C(OC4OC(CO)C(O)C(O)C4O)C(O)C3O)cc2)NC1=O (stereo not drawn) [Example 72, Cyclo[glycyl-β-methylphenylalanyl-O-(4-O-hexopyranosylhexopyranosyl)tyrosyl-3-(2-iminoimidazolidin-4-yl)seryl-3-[1-(10-carboxydecyl)-3-hexopyranosyl-2-iminoimidazolidin-4-yl]serylseryl]]",MIC Enterococcus avium (GC 4558),"Enterococcus sp.; Enterococcus avium (GC 4558); broth dilution, 18 hours at 35° C.",64 µg/mL
same,MIC Enterococcus faecalis (ATCC 29212),"Enterococcus sp.; Enterococcus faecalis (ATCC 29212); broth dilution, 18 hours at 35° C.",>128 µg/mL
same,MIC Enterococcus faecalis (GC 4552),"Enterococcus sp.; Enterococcus faecalis (GC 4552); broth dilution, 18 hours at 35° C.",>128 µg/mL
same,MIC Enterococcus faecalis (GC 4553),"Enterococcus sp.; Enterococcus faecalis (GC 4553); broth dilution, 18 hours at 35° C.",64 µg/mL
same,MIC Enterococcus faecalis (GC 4554),"Enterococcus sp.; Enterococcus faecalis (GC 4554); broth dilution, 18 hours at 35° C.",>128 µg/mL
same,MIC Enterococcus faecalis (GC 6189),"Enterococcus sp.; Enterococcus faecalis (GC 6189); broth dilution, 18 hours at 35° C.",>128 µg/mL
same,MIC Enterococcus faecium (GC 2243),"Enterococcus sp.; Enterococcus faecium (GC 2243); broth dilution, 18 hours at 35° C.",>128 µg/mL
same,MIC Enterococcus faecium (GC 4556),"Enterococcus sp.; Enterococcus faecium (GC 4556); broth dilution, 18 hours at 35° C.",>128 µg/mL
same,MIC Enterococcus faecium (GC 4557),"Enterococcus sp.; Enterococcus faecium (GC 4557); broth dilution, 18 hours at 35° C.",128 µg/mL
same,MIC Enterococcus avium (GC 4558),Enterococcus sp.; [3],64 µg/mL
same,MIC Enterococcus faecalis (ATCC 29212),Enterococcus sp.; [3],>128 µg/mL
same,MIC Enterococcus faecalis (GC 2242),Enterococcus sp.; [3],>128 µg/mL
same,MIC Enterococcus faecalis (GC 2691),Enterococcus sp.; [3],>128 µg/mL
same,MIC Enterococcus faecalis (GC 3059),Enterococcus sp.; [3],>128 µg/mL
same,MIC Enterococcus faecalis (GC 4552),Enterococcus sp.; [3],>128 µg/mL
same,MIC Enterococcus faecalis (GC 4553),Enterococcus sp.; [3],64 µg/mL
same,MIC Enterococcus faecalis (GC 4554),Enterococcus sp.; [3],>128 µg/mL
same,MIC Enterococcus faecalis (GC 6189),Enterococcus sp.; [3],>128 µg/mL
same,MIC Enterococcus faecium (GC 2243),Enterococcus sp.; [3],>128 µg/mL
same,MIC Enterococcus faecium (GC 4556),Enterococcus sp.; [3],>128 µg/mL
same,MIC Enterococcus faecium (GC 4557),Enterococcus sp.; [3],128 µg/mL
same,MIC Enterococcus faecalis (GC 2242),"Enterococcus sp.; broth dilution, 18 hours at 35° C.; strain GC 2242",>128 µg/mL
same,MIC Enterococcus faecalis (GC 2691),"Enterococcus sp.; broth dilution, 18 hours at 35° C.; strain GC 2691",>128 µg/mL
same,MIC Enterococcus faecalis (GC 3059),"Enterococcus sp.; broth dilution, 18 hours at 35° C.; strain GC 3059",>128 µg/mL
same,MIC Staphylococcus aureus (ATCC 29213),Staphylococcus sp.,>128 µg/mL
same,MIC Staphylococcus aureus (GC 1131),Staphylococcus sp.,>128 µg/mL
same,MIC Staphylococcus aureus (GC 3051),Staphylococcus sp.,>128 µg/mL
same,MIC Staphylococcus aureus (GC 3053),Staphylococcus sp.,>128 µg/mL
same,MIC Staphylococcus aureus (GC 4541),Staphylococcus sp.,>128 µg/mL
same,MIC Staphylococcus aureus (GC 4542),Staphylococcus sp.,>128 µg/mL
same,MIC Staphylococcus aureus-SMITH (GC 4543),Staphylococcus sp.,>128 µg/mL
same,MIC Staphylococcus aureus (GC 4544),Staphylococcus sp.,>128 µg/mL
same,MIC Staphylococcus aureus (GC 4545),Staphylococcus sp.,>128 µg/mL
same,MIC Staphylococcus haemolyticus (GC 4546),Staphylococcus sp.,>128 µg/mL
same,MIC Coagulase Negative Staphylococcus (GC 4547),Staphylococcus sp.,>128 µg/mL
same,MIC Coagulase Negative Staphylococcus (GC 4548),Staphylococcus sp.,>128 µg/mL
same,MIC Coagulase Negative Staphylococcus (GC 4549),Staphylococcus sp.,>128 µg/mL
same,MIC Coagulase Negative Staphylococcus (GC 4551),Staphylococcus sp.,>128 µg/mL
same,MIC Coagulase Negative Staphylococcus (GC 6257),Staphylococcus sp.; strain GC 6257,>128 µg/mL
same,MIC Streptococcus agalactiae (GC 4564),Streptococcus sp.; [3],128 µg/mL
same,MIC Streptococcus pneumoniae (ATCC 6301),Streptococcus sp.; [3],64 µg/mL
same,MIC Streptococcus pneumoniae (GC 1894),Streptococcus sp.; [3],16 µg/mL
same,MIC Streptococcus pneumoniae (GC 4565),Streptococcus sp.; [3],64 µg/mL
same,MIC Streptococcus pyogenes (GC 4563),Streptococcus sp.; [3],64 µg/mL
same,MIC Streptococcus pneumoniae (ATCC 6301),"Streptococcus sp.; broth dilution, 18 hours at 35° C.; strain ATCC 6301",64 µg/mL
same,MIC Streptococcus pneumoniae (GC 1894),"Streptococcus sp.; broth dilution, 18 hours at 35° C.; strain GC 1894",16 µg/mL
same,MIC Streptococcus pyogenes (GC 4563),"Streptococcus sp.; broth dilution, 18 hours at 35° C.; strain GC 4563",64 µg/mL
same,MIC Streptococcus agalactiae (GC 4564),"Streptococcus sp.; broth dilution, 18 hours at 35° C.; strain GC 4564",128 µg/mL
same,MIC Streptococcus pneumoniae (GC 4565),"Streptococcus sp.; broth dilution, 18 hours at 35° C.; strain GC 4565",64 µg/mL
same,"Clinical Chemistry (Day 10) % of Control, BUN",[1],+122%
same,"Anatomical Pathology (Day 10), Heart",[2],0
same,"Anatomical Pathology (Day 10), Kidney",[2],++
same,MIC Escherichia coli (ATCC 25922),Escherichia coli,>128 µg/mL
same,MIC Escherichia coli (GC 4559),Escherichia coli,>128 µg/mL
same,MIC Escherichia coli (GC 4560),Escherichia coli,32 µg/mL
"N=C1NCC(C(O)C2NC(=O)C(CC3CCCCC3)NC(=O)C(CC3CCCCC3)NC(=O)CNC(=O)C(CO)NC(=O)C(C(O)C3CNC(=N)N3C3OC(CO)C(O)C(O)C3O)NC2=O)N1 (stereo not drawn) [Example 52, Cyclo[3-cyclohexylalanyl-3-cyclohexylalanyl-3-(2-iminoimidazolidin-4-yl)seryl-3-(3-hexopyranosyl-2-iminoimidazolidin-4-yl)serylserylglycyl]] (cyclo(G[Cha][Cha][ξEnduracididine(βξ-OH,4'ξ)][X1]S); configuration not given here)",MIC Enterococcus faecalis (ATCC 29212),"Enterococcus sp.; strain ATCC 29212; broth dilution, 18 hours at 35° C.",64 µg/mL
same,MIC Enterococcus faecalis (GC 2242),"Enterococcus sp.; strain GC 2242; broth dilution, 18 hours at 35° C.",32 µg/mL
same,MIC Enterococcus faecium (GC 2243),"Enterococcus sp.; strain GC 2243; broth dilution, 18 hours at 35° C.",16 µg/mL
same,MIC Enterococcus faecalis (GC 2691),"Enterococcus sp.; strain GC 2691; broth dilution, 18 hours at 35° C.",32 µg/mL
same,MIC Enterococcus faecalis (GC 3059),"Enterococcus sp.; strain GC 3059; broth dilution, 18 hours at 35° C.",32 µg/mL
same,MIC Enterococcus faecalis (GC 4552),"Enterococcus sp.; strain GC 4552; broth dilution, 18 hours at 35° C.",32 µg/mL
same,MIC Enterococcus faecalis (GC 4553),"Enterococcus sp.; strain GC 4553; broth dilution, 18 hours at 35° C.",16 µg/mL
same,MIC Enterococcus faecalis (GC 4554),"Enterococcus sp.; strain GC 4554; broth dilution, 18 hours at 35° C.",64 µg/mL
same,MIC Enterococcus faecium (GC 4556),"Enterococcus sp.; strain GC 4556; broth dilution, 18 hours at 35° C.",32 µg/mL
same,MIC Enterococcus faecium (GC 4557),"Enterococcus sp.; strain GC 4557; broth dilution, 18 hours at 35° C.",8 µg/mL
same,MIC Enterococcus avium (GC 4558),"Enterococcus sp.; strain GC 4558; broth dilution, 18 hours at 35° C.",32 µg/mL
same,MIC Enterococcus faecalis (GC 6189),"Enterococcus sp.; strain GC 6189; broth dilution, 18 hours at 35° C.",32 µg/mL
same,MIC Staphylococcus aureus (ATCC 29213),Staphylococcus sp.,16 µg/mL
same,MIC Staphylococcus aureus (GC 1131),Staphylococcus sp.,16 µg/mL
same,MIC Staphylococcus aureus (GC 3051),Staphylococcus sp.,16 µg/mL
same,MIC Staphylococcus aureus (GC 3053),Staphylococcus sp.,32 µg/mL
same,MIC Staphylococcus aureus (GC 4541),Staphylococcus sp.,16 µg/mL
same,MIC Staphylococcus aureus (GC 4542),Staphylococcus sp.,8 µg/mL
same,MIC Staphylococcus aureus-SMITH (GC 4543),Staphylococcus sp.,16 µg/mL
same,MIC Staphylococcus aureus (GC 4544),Staphylococcus sp.,16 µg/mL
same,MIC Staphylococcus aureus (GC 4545),Staphylococcus sp.,8 µg/mL
same,MIC Staphylococcus haemolyticus (GC 4546),Staphylococcus sp.,4 µg/mL
same,MIC Coagulase Negative Staphylococcus (GC 4547),Staphylococcus sp.,8 µg/mL
same,MIC Coagulase Negative Staphylococcus (GC 4548),Staphylococcus sp.,8 µg/mL
same,MIC Coagulase Negative Staphylococcus (GC 4549),Staphylococcus sp.,4 µg/mL
same,MIC Coagulase Negative Staphylococcus (GC 4551),Staphylococcus sp.,8 µg/mL
same,MIC Streptococcus pneumoniae (ATCC 6301),"Streptococcus sp.; strain ATCC 6301; broth dilution, 18 hours at 35° C.",8 µg/mL
same,MIC Streptococcus pneumoniae (GC 1894),"Streptococcus sp.; strain GC 1894; broth dilution, 18 hours at 35° C.",8 µg/mL
same,MIC Streptococcus pyogenes (GC 4563),"Streptococcus sp.; strain GC 4563; broth dilution, 18 hours at 35° C.",8 µg/mL
same,MIC Streptococcus agalactiae (GC 4564),"Streptococcus sp.; strain GC 4564; broth dilution, 18 hours at 35° C.",8 µg/mL
same,MIC Streptococcus pneumoniae (GC 4565),"Streptococcus sp.; strain GC 4565; broth dilution, 18 hours at 35° C.",16 µg/mL
same,"Clinical Chemistry (Day 10) % of Control, BUN",[1],211%
same,"Anatomical Pathology (Day 10), Heart",[2],0
same,"Anatomical Pathology (Day 10), Kidney",[2],+++
same,MIC Escherichia coli (ATCC 25922),"Escherichia coli; strain ATCC 25922, broth dilution",64 µg/mL
same,MIC Escherichia coli (GC 4559),"Escherichia coli; strain GC 4559, broth dilution",64 µg/mL
same,MIC Escherichia coli (GC 4560),"Escherichia coli; strain GC 4560, broth dilution",16 µg/mL
